According to patent publication US5663196A, “Methods for treating neoplastic disorders” (Boston University, priority 1993, dated 1997):
Like-named read-outs stand apart in the source and are kept apart here.

Tests used:
[1] = tested on: BW (BW5147) lymphoma cells; assay: Trypan Blue cell viability, BW (BW5147); format: cell-based; conditions: Mus musculus, read-out: Trypan Blue Cell Viability (%)
Text: (§1) 1) The Trypan Blue Dye Exclusion Test for monitoring ceil viability as described by Phillips, H. J., in Tissue Culture Methods and Applications; Kruse, P. F., Jr., Patterson, M. K., Eds.; Academic Press, New York, 1973, 406, and by Wu, Y. W., Chik, L. L., Knazek, R. A. Cancer Research 1989, 49, 3754. The results of this assay are expressed as a percentage of viable cells:
(§2) [% viable cells]=[no. of alive cells]/[total no. of cells]×100
(§3) where the total no. cells=dead cells+alive cells. The results are compared directly with an untreated control, which typically show a three-to-four-fold increase for cancer cells, and a two-fold increase for normal cells. Treatments resulting in [% viable cells] of <30% are considered cytotoxic. Therefore, the trypan blue dye exclusion test was used to assess the number of dead and alive cells using various cell lines upon treatment with the crude and purified agent. This test provides a simple clue to the acute or late onset of a cytotoxic response. Readings for this and all other in vitro assays were taken 48 hours after treatment with the unpurified agent, and also […] after treatment for the purified agent. Thus, the trypan blue dye exclusion assay functions to confirm whether or not the cells were viable at the time readings were taken for other bioassays.
(§4) With the preferred purified active agent in hand, ^3 H-thymidine incorporation and trypan blue assays were initially performed at different dosages using LK and BW lymphoma ceil lines in order to confirm the activity of the preferred purified active agent, and to bracket the active concentration range for the preferred purified active agent. With a molecular weight of 328, a 1 μg/mL solution corresponds to 3 μM concentration. In addition, the time course of cell viability in the trypan blue assay was also monitored in order to best optimize subsequent assays to ensure that the cells were still viable at the time of measurement, and to ensure a nontoxic response of the cells to the agent. Toxicity of the agent would have been observed as cell death within 2 hours. The trypan blue assays (Table 7), run at 30 μM and 3 μM of purified agent (10 and 1 μg/mL, respectively), indicated excellent cell viability after 24 hours, though with a significant drop in viability after 48 hours at a 30 μM dose of preferred purified active agent. Consequently the results of the in vitro assays employing purified agent were all recorded after 24 hours. In the ^3 H-thymidine incorporation assay (Table 8), dosages ranging from 0.1 to 250 μg/mL were examined.

[2] = tested on: CT26 cells (colon adenocarcinoma); assay: Trypan Blue cell viability, CT26; format: cell-based; conditions: Mus musculus, CT26, read-out: Trypan Blue Cell Viability (%)
Text: as §1, §2, §3
(§5) The final in vitro assays performed with the preferred purified active agent were intended to examine the scope of the activity in the trypan blue assay against a wider range of tumor cell lines (Tables 10 and 11). These cell lines included a […] lymphoma BW8767, a BW mutant which is more resistant than the BW cell lines used in other assays, as evidenced by the results in Tables 10 and 11.

[3] = tested on: CT26 cells (colon adenocarcinoma); assay: 3H-Thymidine Incorporation, CT26; format: cell-based; conditions: Mus musculus, read-out: 3H-Thymidine Incorporation (DNA Synthesis) Inhibition (%)
Text: (§6) 2) The ^3 H-Thymidine Incorporation Test as described by Ju, S. T., Dorf, M. E. J. Immunol. 1985, 134, 3722. This test was used for monitoring cellular proliferation by monitoring DNA synthesis. The results are expressed as percent ^3 H-thymidine incorporation relative to an untreated control:
(§7) [% ^3 H-thymidine incorporation]=[cpm agent treated cells]/[cpm
(§8) where cpm=counts per minute. Treatments resulting in [% ^3 H-thymidine incorporation] of <50% are considered active.
(§9) The ^3 H-thymidine incorporation assay therefore measures the amount of DNA synthesis when the cells are in the "S" phase of the cell cycle, and is used to assess cell proliferation. Cancer cells, which have a very rapid cell cycle turnover, normally incorporate large amounts of tritium (^3 H) unless inhibited by an exogenous agent. […] While the trypan blue dye exclusion test is an indicator of cell death, the ^3 H-thymidine incorporation test indicates a cytostatic status (not necessarily cytotoxic) of the cell. As previously noted, this latter test was the primary screen used to guide the isolation to the active agent.

P815 cells (mastocytoma) = assay: Trypan Blue cell viability, P815; format: cell-based; conditions: Mus musculus, P815, read-out: Trypan Blue Cell Viability (%)
Text: as §1, §2, §3

LK lymphoma cells [4] = assay: 3H-Thymidine Incorporation, LK; format: cell-based, mouse
Text: as §6, §7, §8, §9, §4

[5] = tested on: EL-4 cells (type T lymphoma); assay: Trypan Blue cell viability, EL-4; format: cell-based; conditions: Mus musculus, EL4, read-out: Trypan Blue Cell Viability (%)
Text: as §1, §2, §3

[6] = tested on: BW8767 cells (BW resistant mutant); assay: 3H-Thymidine Incorporation, BW8767; format: cell-based; conditions: Mus musculus, read-out: 3H-Thymidine Incorporation (DNA Synthesis) Inhibition (%)
Text: as §6, §7, §8, §9, §5

LK lymphoma cells [7] = assay: 35S-Methionine Incorporation (protein synthesis), LK; format: cell-based; conditions: Mus musculus; for activity at 1 µg/mL: 1 μg/mL; for activity at 10 µg/mL: 10 μg/mL
Text: 3) ^35 S-Methionine Incorporation Test as described by Sorenson, C. M., Barry, M. A., Eastman, A. J. Natl. Canc. Inst. 1990, 82, 749. The results are expressed as percent ^35 S-methionine incorporation relative to an untreated control:
[% ^35 S-methionine incorporation]=[cpm agent treated cells]/[cpm
where cpm=counts per minute. Treatments resulting in [% ^35 S-methionine incorporation] of <50% are considered active.
The ^35 S-methionine incorporation test therefore measures protein synthesis. Activity in this bioassay could arise from inhibition of transcription and/or translation.
In this test, BW and LK lymphoma cells were treated with the preferred purified active agent at 1 μg/mL and 10 μg/mL for comparison with an untreated control. The treated cells were split into two groups, one of which was thoroughly washed to remove the preferred purified active agent prior to incubation with ^35 S-methionine.

[8] = tested on: CT26 colon adenocarcinoma cells; assay: Lung metastases of CT26 in BALB/C mice, 3rd study; format: in vivo; conditions: day 5; 5 μg/g mouse
Experimental: The in vivo activity of the active agent was assessed against two tumor cell types injected into mice: CT26 and Ehrlich Ascites (EAT) tumor cell lines. The protocols of the "National Cancer Institute, Drug Research and Development Division of Cancer Treatment, Instruction 14, Screening Data Summary Interpretation and Outline of Current Screen" were followed.
In a subsequent experiment, mice that had been implanted with CT26 cells as above were treated on day 5 with the solid residue from the evaporation of CsA (100 μg/g mouse), and with the preferred purified active agent 11β,13-dihydrolactucin (5 μg/g mouse).

[9] = tested on: RDM-4 cells (type T lymphoma); assay: Trypan Blue cell viability, RDM-4; format: cell-based; conditions: Mus musculus, read-out: Trypan Blue Cell Viability (%)
Text: as §1, §2, §3, §5

[10] = tested on: BW8767 cells (BW resistant mutant); assay: Trypan Blue cell viability, BW8767; format: cell-based; conditions: Mus musculus, read-out: Trypan Blue Cell Viability (%)
Text: as §1, §2, §3, §5

CC1=C2C(=O)C=C(CO)[C@@H]2[C@H]2OC(=O)[C@@H](C)[C@@H]2[C@@H](O)C1 [11β,13-dihydrolactucin, 3,6-dimethyl-4-hydroxy-9-hydroxymethyl-3,3a,4,5,9a,9b-hexahydroazuleno[4,5-b]furan-2,7-dione]
viability at 10 µg/mL ([1]; 36 h): 72% | viability at 1 µg/mL ([1]; 48 h): 90% | viability at 10 µg/mL ([1]; 48 h): 60% | viability at 0.1 µg/mL [1]: 100% | viability at 0.5 µg/mL [1]: 100% | viability at 1 µg/mL [1]: 100% | viability at 10 µg/mL [1]: 80% | viability at 0.1 µg/mL [2]: 100% | viability at 0.5 µg/mL [2]: 100% | viability at 1 µg/mL [2]: 100% | viability at 10 µg/mL [2]: 100% | inhibition at 0.1 µg/mL ([3]; 0.1 μg/mL): 100% | inhibition at 0.5 µg/mL ([3]; 0.5 μg/mL): 50% | inhibition at 1 µg/mL ([3]; 1.0 μg/mL): 5% | inhibition at 10 µg/mL ([3]; 10 μg/mL): 1% | viability at 0.1 µg/mL (P815 cells (mastocytoma)): 100% | viability at 0.5 µg/mL (P815 cells (mastocytoma)): 100% | viability at 1 µg/mL (P815 cells (mastocytoma)): 100% | viability at 10 µg/mL (P815 cells (mastocytoma)): 80% | ED50, 3H-thymidine incorporation (LK lymphoma cells [4]): micromolar range | inhibition at 0.1 µg/mL (LK lymphoma cells [4]; Mus musculus, 3 h, 0.1 μg/mL, read-out: 3H-Thymidine Incorporation (DNA Synthesis) Inhibition (%)): 95% | inhibition at 1 µg/mL (LK lymphoma cells [4]; Mus musculus, 3 h, 1 μg/mL, read-out: 3H-Thymidine Incorporation (DNA Synthesis) Inhibition (%)): 75% | inhibition at 10 µg/mL (LK lymphoma cells [4]; Mus musculus, 3 h, 10 μg/mL, read-out: 3H-Thymidine Incorporation (DNA Synthesis) Inhibition (%)): 5% | inhibition at 25 µg/mL (LK lymphoma cells [4]; Mus musculus, 3 h, 25 μg/mL, read-out: 3H-Thymidine Incorporation (DNA Synthesis) Inhibition (%)): 2% | inhibition at 100 µg/mL (LK lymphoma cells [4]; Mus musculus, 3 h, 100 μg/mL, read-out: 3H-Thymidine Incorporation (DNA Synthesis) Inhibition (%)): 2% | inhibition at 250 µg/mL (LK lymphoma cells [4]; Mus musculus, 3 h, 250 μg/mL, read-out: 3H-Thymidine Incorporation (DNA Synthesis) Inhibition (%)): 2% | viability at 0.1 µg/mL [5]: 100% | viability at 0.5 µg/mL [5]: 100% | viability at 1 µg/mL [5]: 100% | viability at 10 µg/mL [5]: 100% | inhibition at 0.1 µg/mL ([6]; 0.1 μg/mL): 100% | inhibition at 0.5 µg/mL ([6]; 0.5 μg/mL): 100% | inhibition at 1 µg/mL ([6]; 1.0 μg/mL): 80% | inhibition at 10 µg/mL ([6]; 10 μg/mL): 60% | activity at 1 µg/mL (LK lymphoma cells [7]; LK (washed)): 100% | activity at 10 µg/mL (LK lymphoma cells [7]; LK (washed)): 100% | activity at 1 µg/mL (LK lymphoma cells [7]; LK, unwashed): 50% | activity at 10 µg/mL (LK lymphoma cells [7]; LK, unwashed): 10% | Number of Metastases (mean ± S.D.) [8]: 0.33 ± 0.33 | viability at 0.1 µg/mL [9]: 100% | viability at 0.5 µg/mL [9]: 100% | viability at 1 µg/mL [9]: 100% | viability at 10 µg/mL [9]: 90% | viability at 0.1 µg/mL [10]: 100% | viability at 0.5 µg/mL [10]: 100% | viability at 1 µg/mL [10]: 100% | viability at 10 µg/mL [10]: 100%
